# Experimental data from patent US20090318451A1, “[…] AGONISTS FOR THE TREATMENT OF PAIN” (Pfizer Inc., priority 2007, published 2009).
# Where two headings read alike, the source gives them in different places.
# Columns and labels:
# [1] = test system: MIA-induced static allodynia (rats); test: Monosodium iodoacetate (MIA)-induced static allodynia; type: in vivo, rat
# [2] = test system: Capsaicin-induced hyperalgesia; test: Capsaicin-induced hyperalgesia, static and dynamic allodynia endpoint; type: in vivo, rat
# [3] = biological target: T1, human Dopamine D3 receptor (Homo sapiens, UniProt P35462); test: Inhibition via dopamine D3 receptors of forskolin-stimulated adenylate cyclase activity (cAMP, hD3CHO cells); type: cell-based; conditions: for functional selectivity for D3 over D2: D2 EC50 divided by D3 EC50, 10000 used where D2 EC50 >10000
# T1 construct: expressed in transfected cells; host or cells: CHO (dihydrofolate reductase deficient), generated in house
# T1 sequence (P35462 whole entry): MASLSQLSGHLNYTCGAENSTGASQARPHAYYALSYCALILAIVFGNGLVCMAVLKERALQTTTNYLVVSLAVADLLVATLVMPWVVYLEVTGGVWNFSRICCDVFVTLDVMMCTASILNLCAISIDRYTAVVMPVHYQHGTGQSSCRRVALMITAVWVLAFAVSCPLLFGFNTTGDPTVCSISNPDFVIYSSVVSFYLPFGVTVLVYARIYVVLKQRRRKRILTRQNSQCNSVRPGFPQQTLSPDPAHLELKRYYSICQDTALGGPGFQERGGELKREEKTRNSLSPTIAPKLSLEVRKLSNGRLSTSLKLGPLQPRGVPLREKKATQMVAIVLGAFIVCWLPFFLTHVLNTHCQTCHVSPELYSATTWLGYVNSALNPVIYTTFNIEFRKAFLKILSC
# [4] = test system: MIA-induced weight deficit (rats); test: MIA-induced weight-bearing deficit; type: in vivo, rat
# [5] = biological target: T2, D4 dopamine receptor (Homo sapiens, UniProt P21917); test: In vitro binding (membrane preparation), human recombinant receptors, D4
# T2 construct: expressed in transfected cells
# T2 sequence (P21917 1-419): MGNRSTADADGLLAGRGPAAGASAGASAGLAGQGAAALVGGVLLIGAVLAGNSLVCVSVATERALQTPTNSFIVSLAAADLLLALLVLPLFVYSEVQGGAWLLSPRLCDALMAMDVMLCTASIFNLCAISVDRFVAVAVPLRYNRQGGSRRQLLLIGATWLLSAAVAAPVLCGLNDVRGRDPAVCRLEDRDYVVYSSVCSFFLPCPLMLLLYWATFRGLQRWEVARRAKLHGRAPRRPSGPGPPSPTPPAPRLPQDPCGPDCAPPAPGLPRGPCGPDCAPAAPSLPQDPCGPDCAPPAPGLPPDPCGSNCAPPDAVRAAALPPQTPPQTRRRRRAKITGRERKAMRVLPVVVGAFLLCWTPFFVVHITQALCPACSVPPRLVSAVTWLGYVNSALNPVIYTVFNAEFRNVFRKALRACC
# [6] = biological target: D5 (Homo sapiens, UniProt P21918); test: In vitro binding (membrane preparation), human recombinant receptors, D5
# Sequence of D5 (P21918 whole entry): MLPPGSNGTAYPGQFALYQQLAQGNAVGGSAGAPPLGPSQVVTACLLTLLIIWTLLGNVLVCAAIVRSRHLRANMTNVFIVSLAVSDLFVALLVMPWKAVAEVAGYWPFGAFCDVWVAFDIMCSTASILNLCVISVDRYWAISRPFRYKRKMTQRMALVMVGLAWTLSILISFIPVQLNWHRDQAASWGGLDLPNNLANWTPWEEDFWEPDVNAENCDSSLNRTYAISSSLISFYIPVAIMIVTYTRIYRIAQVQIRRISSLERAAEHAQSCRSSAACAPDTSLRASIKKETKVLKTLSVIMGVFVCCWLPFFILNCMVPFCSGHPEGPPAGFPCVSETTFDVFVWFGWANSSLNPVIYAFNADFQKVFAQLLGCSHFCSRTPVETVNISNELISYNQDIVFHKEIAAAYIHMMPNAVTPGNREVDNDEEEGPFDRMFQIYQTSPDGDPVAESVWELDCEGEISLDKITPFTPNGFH
# [7] = biological target: D1 (Homo sapiens, UniProt P21728); test: In vitro binding (membrane preparation), human recombinant receptors, D1
# Sequence of D1 (P21728 whole entry): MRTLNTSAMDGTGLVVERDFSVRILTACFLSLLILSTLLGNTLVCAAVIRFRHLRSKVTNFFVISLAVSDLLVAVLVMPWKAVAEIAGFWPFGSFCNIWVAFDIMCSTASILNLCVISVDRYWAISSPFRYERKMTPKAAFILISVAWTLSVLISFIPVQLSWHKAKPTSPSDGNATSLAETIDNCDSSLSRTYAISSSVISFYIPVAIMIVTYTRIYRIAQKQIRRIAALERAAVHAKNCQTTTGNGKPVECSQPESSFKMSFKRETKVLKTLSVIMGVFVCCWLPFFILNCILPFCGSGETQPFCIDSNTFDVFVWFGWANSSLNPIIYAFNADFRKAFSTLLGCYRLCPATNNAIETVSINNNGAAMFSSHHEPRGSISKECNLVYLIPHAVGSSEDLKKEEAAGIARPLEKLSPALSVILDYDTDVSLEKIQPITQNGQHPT
# [8] = test system: Plantar surgery-induced static and dynamic allodynia (rats); test: Plantar surgery model of postsurgical pain, static and dynamic allodynia; type: in vivo, rat
# [9] = test system: Hotplate paw withdrawal latency (rats); test: Hotplate paw withdrawal latency; type: in vivo, rat
# [10] = biological target: T3, human dopamine D2long receptor (Homo sapiens, UniProt P14416); test: Inhibition via dopamine D2 receptors of forskolin-stimulated adenylate cyclase activity (cAMP, GH4C1/hD2L cells); type: cell-based
# T3 construct: expressed in transfected cells; host or cells: GH4C1 rat pituitary cells
# T3 sequence (P14416 whole entry): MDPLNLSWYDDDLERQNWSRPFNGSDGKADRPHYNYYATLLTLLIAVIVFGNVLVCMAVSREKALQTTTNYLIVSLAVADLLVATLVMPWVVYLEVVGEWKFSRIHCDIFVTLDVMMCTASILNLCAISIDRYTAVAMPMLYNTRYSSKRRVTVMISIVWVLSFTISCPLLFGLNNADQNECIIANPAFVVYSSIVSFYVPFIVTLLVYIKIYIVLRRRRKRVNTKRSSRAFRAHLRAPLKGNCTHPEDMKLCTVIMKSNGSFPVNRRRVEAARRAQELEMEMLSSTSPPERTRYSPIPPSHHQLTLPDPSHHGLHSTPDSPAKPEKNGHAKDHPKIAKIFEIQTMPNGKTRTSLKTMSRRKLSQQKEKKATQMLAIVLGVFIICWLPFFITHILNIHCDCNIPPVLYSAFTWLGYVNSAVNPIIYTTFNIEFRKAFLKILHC
# [11] = biological target: D3 dopamine receptor (Homo sapiens, UniProt P35462); test: In vitro binding (membrane preparation), human recombinant receptors, D3
# Sequence of D3 dopamine receptor (P35462 whole entry): as the sequence (P35462 whole entry) above
# [12] = Free plasma concentration after oral dosing in pain model rats; conditions: for peak free-plasma concentration / predicted free-plasma exposure: based on the known PK profile, 0.1 mg/kg
# [13] = test system: CCI-induced static and dynamic allodynia (rats); test: Chronic constriction injury (CCI) of sciatic nerve, static and dynamic allodynia; type: in vivo, rat
# [14] = biological target: T2, D4 dopamine receptor; test: Functional inhibition of forskolin-stimulated cAMP accumulation in human recombinant cell lines, D4; type: cell-based
# [15] = biological target: D2 dopamine receptor (Homo sapiens, UniProt P14416); test: In vitro binding (membrane preparation), human recombinant receptors, D2
# Sequence of D2 dopamine receptor (P14416 whole entry): as the sequence (P14416 whole entry) above
structure (smiles),measurement,setting,value
"N#Cc1ccc2c(c1)CCN(CCC1CCC(NC(=O)c3ccnc4ccccc34)CC1)C2 (stereo not drawn) [quinoline-4-carboxylic acid (4-[2-(6-cyano-3,4-dihydro-1H-isoquinolin-2-yl)ethyl]cyclohexyl)-amide, reference compound]",effect of 0.1 mg/kg of the compound of Example 67 on MIA allodynia after D3 antagonist,[1]; antagonist oral 3 mg/kg,abolished
"CC(C)C[C@H](CN)CC(=O)O [pregabalin, reference compound]","effect in capsaicin model, positive control compared with Example 67 at 1 mg/kg","[2]; rat, 30 mg/kg",equivalent in magnitude
"COc1cccc(C2(O)CCCCC2CN(C)C)c1 (stereo not drawn) [tramadol, reference compound]","reversal of MIA-induced static allodynia, positive control",[1]; 100 mg/kg,full reversal
"CCCN1CCO[C@H](c2cccc(O)c2)C1.Cl [Example 8, R-(−)-3-(4-Propylmorpholin-2-yl)phenol hydrochloride]",EC50,[3],0.0076 µM
same,functional selectivity for D3 over D2,[3],1315.8 fold
"CCCN1C[C@@H](c2ccc(N)nc2)OC[C@@H]1C [Example 67, 5-[(2R,5S)-5-methyl-4-propylmorpholin-2-yl]pyridin-2-amine]","Minimum Effective Dose, MIA-induced weight deficit","[4]; oral, single-dose study",0.1 mg/kg oral single-dose study
same,efficacy on weight-bearing deficit following MIA injection,[4]; single dose 0.1 mg/kg,efficacy similar to optimal opioid treatment
same,Ki,[5],4.16 µM
same,IC50,[6],> 10 µM
same,"Minimum Effective Dose, MIA-induced static allodynia",[1]; oral,0.01 mg/kg
same,reversal of MIA-induced static allodynia,[1]; oral 0.1 mg/kg,full reversal
same,reversal of MIA-induced static allodynia,"[1]; oral 0.01, 0.03 and 0.1 mg/kg",dose response in reversal of the allodynia
same,IC50,[7],> 10 µM
same,oral dose giving maximal effect on surgery-induced allodynia,[8],0.1 mg/kg
same,reversal of surgery-induced static and dynamic allodynia,[8]; oral,dose-dependent reversal
same,efficacy in hotplate model (paw withdrawal latency),"[9]; rat, oral 0.01, 0.03, 0.1 and 1.0 mg/kg, hotplate 52° C.",no efficacy
same,"Minimum Effective Dose, hotplate paw withdrawal latency","[9]; rats, oral",No effect up to 1.0 mg/kg oral
same,EC50,[10],> 10 µM
same,"% Response @ 10 μM, D2","[10]; 10 μM, response as percentage of the effect to pramipexole, (95% CI)",% Response @ 10 μM = 36 (19-56)
same,"Minimum Effective Dose, capsaicin-induced hyperalgesia",[2]; oral,0.01 mg/kg oral
same,dose giving optimal effect in capsaicin model,"[2]; rat, oral pre-dosing",1 mg/kg
same,effect on capsaicin-induced static and dynamic allodynia,"[2]; rat, oral pre-dosing 0.01, 0.1 and 1 mg/kg, capsaicin 1 hour after dosing",dose response
same,Ki,[11],0.215 µM
same,binding selectivity over D2 dopamine receptor,[11]; D3 versus D2 binding,> 46 fold
same,functional selectivity for D3 over D2,[3],> 470 fold
same,Emax,"[3]; D3, CHO cells, full agonist, normalised to pramipexole, read-out: % Emax",95%
same,functional selectivity over D4 dopamine receptor,"[3]; D3 versus D4, cAMP",180 fold
same,Emax,"[3]; forskolin-stimulated cAMP accumulation, (95% CI), read-out: % Emax, D3",95%
same,peak free-plasma concentration / predicted free-plasma exposure,[12]; oral 0.1 mg/kg,10 nM
same,peak free-plasma concentration / predicted free-plasma exposure,"[12]; oral 0.1 mg/kg, listed as 5-[(2R,5S)-5-methyl-4-propylmorpholin-2-yl]pyridin-2-amine",approximately 10 nM
same,"measured mean free Cmax for MED, MIA-induced static allodynia","[12]; rats, 0.01 mg/kg oral",1.85 nM
same,free plasma concentration,"[12]; rats, oral 0.01 mg/kg",1.85 nM
same,free plasma concentration,"[12]; rats, oral 0.03 mg/kg",5.70 nM
same,free plasma concentration,"[12]; rats, oral 0.1 mg/kg",10.77 nM
same,"Minimum Effective Dose, CCI-induced static and dynamic allodynia",[13]; oral,No effect up to 0.1 mg/kg oral
same,effect on CCI-induced static and dynamic allodynia,[13]; oral 0.1 mg/kg,no effects
same,EC50,[14],3.9 µM
same,Emax,"[14]; forskolin-stimulated cAMP accumulation, (95% CI)",92%
same,IC50,[15],> 10 µM
